One series deals with COVID-19 patients. To be noted: cited from earlier work.
In the next series the test system is hiPSC-CMs. The experiment in a line: Multi-electrode array (MEA) field potentials of hiPSC-CMs cultured in 2-D or on aligned coaxial patches (3-D) after cardiac drugs. The class given is cell-based, human. The conditions noted are these: for beating frequency (beats per minute): change after treatment.
Series [1] concerns hiPSC-CMs cultured on aligned coaxial patches. The experiment in a line: Particle image velocimetry (PIV) optical contractility of aligned coaxial cardiac patch. It is filed as cell-based, human. The conditions noted are these: 100 nM, patches at two weeks of culture. As to the method: Cross-correlation (“PIV”) analysis of images. Cell contractility kinetics were assessed using the optical flow/PIV method. Briefly, a motion pattern (velocity field) captured on a pair of images was calculated by dividing the first image into overlapping tiles, each 64 pixels wide. The second image was then scanned pixel-by-pixel, by shifting an equally sized (64×64 pixels) window. The most similar (by Euclidean distance) tile on the second image was then assumed to be the location where the pattern in the first image moved. The resulting displacement vectors characterizing each image tile were then interpolated and denoised by a thin-plate spline fit, yielding a coarse displacement field. The coarse estimate was used to construct a second, higher resolution displacement field. […] Fourier spectra were calculated from D(t) beat patterns using the discrete Fourier transform algorithm. Power densities were calculated as the magnitudes of the squared Fourier spectra, and indicate periodicity within the signal in the form of peaks at the corresponding frequencies. When the analyzed signal is not a pure sine wave, harmonics are expected to appear at integer multiples of the fundamental frequency f(2f, 3f, etc). […]

The subject of the next series is fertilized chicken eggs. The experiment in a line: In ovo CAM assay. The class given is in vivo. To be noted: in Geltrex carrier, 5 days. As to the method:
The angiogenic potential of bFGF loaded PDA-NPs and DPDA-NPs was evaluated by using fertilized chicken eggs. The eggs were incubated in a hatching incubator for 5 days, following the incubation the viable eggs were selected and grouped as follows (bFGF+Geltrex, bFGF-PDA-NPs+Geltrex, bFGF-DPDA-NPs+Geltrex and only Geltrex). A window was made on the eggshell and a sterilized nylon mesh was placed inside the egg. The test samples were loaded on the nylon mesh and the window was covered by placing a 35 mm plate and secured by using tape. The eggs were further incubated for 5 days, following which it was carefully dissected to retrieve the nylon mesh and imaged using a stereomicroscope (Leica).

Turning to `CCN(CCO)CCCC(C)Nc1ccnc2cc(Cl)ccc12` (stereo not shown) [HCQ, hydroxychloroquine], in the series with hiCMs, the cell death entry is listed as “increased”; the cell viability entry is “decreased”; the “electrophysiological function (MEA and patch clamp)” value is on record as “considerable changes”. The QT interval entry in the series on COVID-19 patients (COVID-19 / SARS-CoV-2 patients) is given as “QT prolongation”. In addition, the “association between treatment and consequent intubation or death” value with COVID-19 patients (New York study (Geleris et al)) is recorded as “no significant association”. Besides, the recovery of patients entry with COVID-19 patients (randomized clinical trial, administration for 5 days) is listed as “improved recovery”.
As to `CC(C)NCC(O)c1ccc(O)c(O)c1` (stereo not shown) [ISO, Isoproterenol], the beat period in the series with hiPSC-CMs (2-D culture, 10 nM ISO) was 0.67 ± 0.04 s; in the series with hiPSC-CMs (2-D culture, 100 nM ISO) it was 0.66 ± 0.03 s; in the series on hiPSC-CMs (3-D culture (aligned coaxial patch), 10 nM ISO) it was 0.8 ± 0.15 s; in the series with hiPSC-CMs (3-D culture (aligned coaxial patch), 100 nM ISO), 0.66 ± 0.1 s. The “Fridericia-corrected field potential duration (FPDc), change vs baseline” value in the series with hiPSC-CMs (both 2-D and 3-D cultures) was “dose-dependent shortening of the QT interval”. Besides, the “beat period, change vs baseline” value with hiPSC-CMs (both 2-D and 3-D cultures) was “significant dose-dependent decrease”. For the same compound, the “beating frequency (beats per minute)” value in the series on hiPSC-CMs (both 2-D and 3-D cultures) was “increase”. In addition, the “spontaneous beat amplitude (beat patterns)” value in series [1] is listed as “increase”. Moreover, in series [1] (mean +- SEM, untreated 0.136 Hz), the “average frequency of spontaneous beating” value is given as 1.497+−0.0394 Hz.
Turning to `COc1ccc(CCN(C)CCCC(C#N)(c2ccc(OC)c(OC)c2)C(C)C)cc1OC` (stereo not shown) [Verapamil], the “FPDc, change with dose” value in the series on hiPSC-CMs (3-D culture only, 0.1 μM and 0.3 μM) is “dose-dependent decrease”. Besides, in the series on hiPSC-CMs (both 2-D and 3-D cultures), the “beat period, change vs baseline” value is “significant fold decrease” and the “beating frequency (beats per minute)” value was “increase”.
On to bFGF: basic fibroblast growth factor, for which the “new blood vessel formation on nylon mesh” value in the series on fertilized chicken eggs was “remarkable angiogenesis”.

Source of the values: patent US20230226259A1, “NANOFIBER CARDIAC PATCH AND METHODS OF USE THEREOF” (Ohio State Innovation Foundation, priority 2020, published 2023).
